Experimental data reported in patent EP0009777A1, “Retinoic- and 7,8-dehydro-retinoic-acid-N-(carboxy)phenyl amides, process for their preparation and pharmaceutical compositions containing them” (BASF Aktiengesellschaft, priority 1978, dated 1980).

These molecules were tested on Hamster-Tracheen-Gewebe (assay: Reversal of keratinisation induced by vitamin A deficiency in hamster tracheal tissue (organ culture; methods of Clamon et al. 1974, Sporn et al. 1975)). Conditions: Mesocricetus auratus, keratinisation induced by vitamin A hypovitaminosis, read-out: Konzentration, in der die Keratinisierung von Hamster-Tracheen-Gewebe rückgängig gemacht / geheilt wird (wirksam).
Type: cell-based
Source text: (§1) Nachteilig an diesen bekannten Retinsäureamiden ist ihre geringe therapeutische Breite. Die Substanzen zeigen entweder eine vergleichsweise geringe Aktivität oder wie wirken schon in vergleichsweise geringen Dosen toxisch. So kann beispielsweise Retinsäure-N-etylamid schon in 2 x 10-^9 molaren Konzentrationen die durch Vitamin A-Hypovitaminose induzierte Keratinisierung von Hamster-Tracheen--Gewebe wieder rückgängig machen. Die Methodik hierzu kann G.H. Clamon et al Nature 250; 64-66 (1974) oder M.B. Sporn et al Nature 253, 47-50 (1975)) entnommen werden. Die Keratinisierung wird als praekanzerotischer Prozeß angesehen. Das Retinsäure-N-ethylamid wirkt bereits in einer Konzentration von 9 x 10-^7 molar toxisch auf Tracheenknorpelgewebe vom Hamster in Kultur, wie von M.B. Sporn et al in Nature 263, 110-113 (1976) beschrieben ist.
Bei der Prophylaxe von Praekanzerosen an keratinisiertem Hamster-Tracheen-Gewebe ist die freie Säure jedoch noch in 10^-10 molarer Konzentration wirksam und damit wesentlich aktiver als der Ethylester.
`CCOC(=O)c1ccc(NC(=O)/C=C(C)/C=C/C=C(C)/C=C/C2=C(C)CCCC2(C)C)cc1` [Retinsäure-N-(p-ethoxycarbonyl)-phenylamid, reference compound] showed a minimal effective concentration of 0.01 µM.
`CCNC(=O)/C=C(C)/C=C/C=C(C)/C=C/C1=C(C)CCCC1(C)C` [Retinsäure-N-ethylamid, reference compound] showed a minimal effective concentration of 0.002 µM.
For `CC1=C(/C=C/C(C)=C/C=C/C(C)=C/C(=O)Nc2ccc(C(=O)O)cc2)C(C)(C)CCC1` [all-E-Retinsäure-N-(p-carboxy)-phenylamid], the minimal effective concentration was 0.0001 µM.

Same assay, conditions: keratinisation induced by vitamin A hypovitaminosis
With `CC1=C(/C=C/C(C)=C/C=C/C(C)=C\C(=O)Nc2cccc(C(=O)O)c2)C(C)(C)CCC1` [13-Z-Retinsäure-N-(m-carboxy)-phenylamid] the “Konzentration, in der die Keratinisierung von Hamster-Tracheen-Gewebe rückgängig gemacht / geheilt wird (wirksam)” value was “Entsprechende Resultate”.
With `CC1=C(/C=C/C(C)=C/C=C/C(C)=C\C(=O)Nc2ccccc2C(=O)O)C(C)(C)CCC1` [13-Z-Retinsäure-N-(o-carboxy)-phenylamid] the “Konzentration, in der die Keratinisierung von Hamster-Tracheen-Gewebe rückgängig gemacht / geheilt wird (wirksam)” value was “Entsprechende Resultate”.
With `CC1=C(/C=C/C(C)=C/C=C/C(C)=C\C(=O)Nc2ccc(C(=O)O)cc2)C(C)(C)CCC1` [13-Z-Retinsäure-N-(p-carboxy)-phenylamid] the “Konzentration, in der die Keratinisierung von Hamster-Tracheen-Gewebe rückgängig gemacht / geheilt wird (wirksam)” value was “Entsprechende Resultate”.
With `CC1=C(C#C/C(C)=C/C=C/C(C)=C/C(=O)Nc2cccc(C(=O)O)c2)C(C)(C)CCC1` [all-E-7,8-Dehydro-retinsäure-N-(m-carboxy)-phenylamid] the “Konzentration, in der die Keratinisierung von Hamster-Tracheen-Gewebe rückgängig gemacht / geheilt wird (wirksam)” value was “Entsprechende Resultate”.
With `CC1=C(C#C/C(C)=C/C=C/C(C)=C/C(=O)Nc2ccccc2C(=O)O)C(C)(C)CCC1` [all-E-7,8-Dehydro-retinsäure-N-(o-carboxy)-phenylamid] the “Konzentration, in der die Keratinisierung von Hamster-Tracheen-Gewebe rückgängig gemacht / geheilt wird (wirksam)” value was “Entsprechende Resultate”.
`CC1=C(C#C/C(C)=C/C=C/C(C)=C/C(=O)Nc2ccc(C(=O)O)cc2)C(C)(C)CCC1` [all-E-7,8-Dehydro-retinsäure-N-(p-carboxy)-phenylamid] was tested, and the “Konzentration, in der die Keratinisierung von Hamster-Tracheen-Gewebe rückgängig gemacht / geheilt wird (wirksam)” value was “Entsprechende Resultate”.
For `CC1=C(/C=C/C(C)=C/C=C/C(C)=C/C(=O)Nc2cccc(C(=O)O)c2)C(C)(C)CCC1` [all-E-Retinsäure-N-(m-carboxy)-phenylamid], the “Konzentration, in der die Keratinisierung von Hamster-Tracheen-Gewebe rückgängig gemacht / geheilt wird (wirksam)” value was “Entsprechende Resultate”.
For `CC1=C(/C=C/C(C)=C/C=C/C(C)=C/C(=O)Nc2ccccc2C(=O)O)C(C)(C)CCC1` [all-E-Retinsäure-N-(o-carboxy)-phenylamid], the “Konzentration, in der die Keratinisierung von Hamster-Tracheen-Gewebe rückgängig gemacht / geheilt wird (wirksam)” value was “Entsprechende Resultate”.

These molecules were tested on Tracheenknorpelgewebe vom Hamster (assay: Toxicity on hamster tracheal cartilage tissue in culture (Sporn et al. 1976)). Conditions: result in words; test not named, presumably the tracheal cartilage culture.
Type: cell-based
Source text: as §1
`CCOC(=O)c1ccc(NC(=O)/C=C(C)/C=C/C=C(C)/C=C/C2=C(C)CCCC2(C)C)cc1` [Retinsäure-N-(p-ethoxycarbonyl)-phenylamid, reference compound] was tested, and the “celluläre Toxizität” value was “geringe celluläre Toxizität”.
`CC1=C(/C=C/C(C)=C/C=C/C(C)=C/C(=O)Nc2ccc(C(=O)O)cc2)C(C)(C)CCC1` [all-E-Retinsäure-N-(p-carboxy)-phenylamid] was tested, and the “celluläre Toxizität” value was “ebenso geringe Toxizität wie der entsprechende Ethylester”.
